{"source": "patent US20250230193A1", "about": "“CYCLIC COMPOUND HAVING SELECTIVE KRAS INHIBITORY EFFECT ON HRAS AND NRAS” (CHUGAI SEIYAKU KABUSHIKI KAISHA, priority 2022, published 2025)", "key": {"[1]": {"molecular_target": "GDP-bound NRAS wild-type protein (Homo sapiens, UniProt P01111)", "sequence (P01111 whole entry)": "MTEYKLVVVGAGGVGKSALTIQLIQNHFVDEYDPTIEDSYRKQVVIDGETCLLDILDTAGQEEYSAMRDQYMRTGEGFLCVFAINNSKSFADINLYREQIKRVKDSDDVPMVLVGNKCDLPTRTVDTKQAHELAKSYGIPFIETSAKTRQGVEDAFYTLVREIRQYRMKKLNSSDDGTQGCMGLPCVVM", "assay": "Binding to NRAS by surface plasmon resonance (SPR), Single Cycle Kinetics"}, "[2]": {"molecular_target": "GDP-bound HRAS wild-type protein (Homo sapiens, UniProt P01112)", "sequence (P01112 whole entry)": "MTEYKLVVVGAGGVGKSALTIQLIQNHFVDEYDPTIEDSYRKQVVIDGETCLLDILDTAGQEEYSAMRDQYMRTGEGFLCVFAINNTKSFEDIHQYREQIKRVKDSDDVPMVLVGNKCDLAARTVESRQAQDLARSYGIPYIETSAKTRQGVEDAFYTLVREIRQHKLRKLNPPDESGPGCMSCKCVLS", "assay": "Binding to HRAS by surface plasmon resonance (SPR), Single Cycle Kinetics"}, "[3]": {"settings": "KD ratio, GDP-bound NRAS wild-type vs GDP-bound KRAS wild-type, SPR"}, "[4]": {"settings": "KD ratio, GDP-bound HRAS wild-type vs GDP-bound KRAS wild-type, SPR"}}, "note": "*1 amine or outer side, *2 acyl side, *3 side chain or, on linkers, in order; H or OH if unused. Where a SMILES comes first, the peptide text is derived from it. Bridges are numbered along the chain shown (N, C = ends). [ ]: non-standard residue; d: D form. The star is where a group is joined. hPhe(3-Cl-4-CF3) = N[C@@H](CCc1ccc(C(F)(F)F)c(Cl)c1)C(=O)O; NPrPhe(4-CF3) = CCCN[C@@H](Cc1ccc(C(F)(F)F)cc1)C(=O)O; NEtPhe(4-Me) = CCN[C@@H](Cc1ccc(C)cc1)C(=O)O; X4 = CCCN([C@@H](COCCC(C)C)C(=O)[*:2])[*:1]; NMeGly(cPent) = CN[C@H](C(=O)O)C1CCCC1; NMeD = CN[C@@H](CC(=O)O)C(=O)O; NMeL = CN[C@@H](CC(C)C)C(=O)O; NEtAla = CCN[C@@H](C)C(=O)O; Morpholide = C1CN(*)CCO1; NMeA = CN[C@@H](C)C(=O)O; Ac5c = NC1(C(=O)O)CCCC1; Aze = O=C(O)[C@@H]1CCN1; Ac4c = NC1(C(=O)O)CCC1; NEtG = CCNCC(=O)O; Sar = CNCC(=O)O", "data": [{"smiles": "CC[C@H](C)[C@@H]1NC(=O)[C@H](CC)N(C)C(=O)C[C@@H](C(=O)N(C)C)N(C)C(=O)[C@H](C2CCCC2)N(C)C(=O)C2(CCC2)NC(=O)[C@H](C)NC(=O)[C@H](CCc2cc(F)c(C(F)(F)F)c(F)c2)NC(=O)CN(C)C(=O)[C@H](Cc2ccc(C(F)(F)F)cc2)N2CC/C=C\\C[C@@H](C2=O)N(C)C(=O)CN(C)C1=O", "note": "[PP1140]", "values": [{"measurement": "NRAS/KRAS (ratio of KD value with respect to NRAS to KD value with respect to KRAS)", "setting": "[1]; [3]", "result": "A (a compound having 10 or more and less than 20 is denoted as A)"}, {"measurement": "HRAS/KRAS (ratio of KD value with respect to HRAS to KD value with respect to KRAS)", "setting": "[2]; [4]", "result": "A (a compound having 10 or more and less than 20 is denoted as A)"}]}, {"smiles": "CCCN1C(=O)[C@@H]2CCN2C(=O)[C@H](C)N(CC)C(=O)[C@H]([C@@H](C)CC)NC(=O)[C@H](CC(C)C)N(C)C(=O)C[C@@H](C(=O)N2CCOCC2)N(C)C(=O)[C@H](C2CCCC2)N(C)C(=O)C2(CCCC2)NC(=O)[C@@H]2CCCN2C(=O)[C@H](CCc2ccc(C(F)(F)F)c(Cl)c2)NC(=O)CN(C)C(=O)[C@@H]1Cc1ccc(C(F)(F)F)cc1", "note": "[PP0152] ([NMeL]I[NEtAla][Aze][NPrPhe(4-CF3)][Sar][hPhe(3-Cl-4-CF3)]P[Ac5c][NMeGly(cPent)][NMeD]-Morpholide; lactam N-11)", "values": [{"measurement": "NRAS/KRAS (ratio of KD for GDP-bound NRAS wild-type to KD for KRAS)", "setting": "[1]; KD ratio NRAS/KRAS, SPR", "result": "C (A compound having a KD ratio of 0.1 or more and less than 3 is denoted as C)"}, {"measurement": "HRAS/KRAS (ratio of KD for GDP-bound HRAS wild-type to KD for KRAS)", "setting": "[2]; KD ratio HRAS/KRAS, SPR", "result": "B (a compound having 3 or more and less than 10 is denoted as B)"}]}, {"smiles": "CCC(CC)[C@H]1C(=O)N(C)[C@H](C(=O)N(C)C)CC(=O)N(C)[C@@H](COC)C(=O)N[C@@H]([C@@H](C)CC)C(=O)N(C)CC(=O)N(C)[C@H]2C/C=C\\CCN(C2=O)[C@@H](Cc2ccc(C(F)(F)F)cc2)C(=O)N(C)CC(=O)N[C@@H](CCc2ccc(Cl)c(Cl)c2)C(=O)N2C[C@H](OC(C)C)C[C@H]2C(=O)NC2(CC(C)(C)C2)C(=O)N1C", "note": "[PP2533]", "values": [{"measurement": "NRAS/KRAS (ratio of KD value with respect to GDP-bound NRAS wild-type protein to KD value with respect to KRAS)", "setting": "[1]; KD ratio NRAS/KRAS, class symbols", "result": "AA (a compound having 20 or more is denoted as AA)"}, {"measurement": "HRAS/KRAS (ratio of KD value with respect to GDP-bound HRAS wild-type protein to KD value with respect to KRAS)", "setting": "[2]; KD ratio HRAS/KRAS, class symbols", "result": "A (a compound having 10 or more and less than 20 is denoted as A)"}]}, {"smiles": "CCO[C@@H]1C[C@H]2C(=O)NC3(CCC3)C(=O)N(C)[C@@H](C3CCCC3)C(=O)N(C)[C@H](C(=O)N(C)C)CC(=O)N(C)[C@@H](CCC(F)F)C(=O)N[C@@H]([C@@H](C)CC)C(=O)N(C)CC(=O)N(C)[C@H]3C/C=C\\CCN(C3=O)[C@@H](Cc3ccc(C(F)(F)F)cc3)C(=O)N(C)CC(=O)N[C@@H](CCc3cc(F)c(C(F)(F)F)c(F)c3)C(=O)N2C1", "note": "[PP1121]", "values": [{"measurement": "NRAS/KRAS (ratio of KD value with respect to NRAS to KD value with respect to KRAS)", "setting": "[1]; [3]", "result": "A (a compound having 10 or more and less than 20 is denoted as A)"}, {"measurement": "HRAS/KRAS (ratio of KD value with respect to HRAS to KD value with respect to KRAS)", "setting": "[2]; [4]", "result": "A (a compound having 10 or more and less than 20 is denoted as A)"}]}, {"smiles": "CCO[C@@H]1C[C@H]2C(=O)NC3(CCC3)C(=O)N(C)[C@@H](C3CCCC3)C(=O)N(C)[C@H](C(=O)N(C)C)CC(=O)N(C)[C@@H](C(C)C)C(=O)N[C@@H]([C@@H](C)CC)C(=O)N(C)CC(=O)N(C)[C@H]3C/C=C\\CCN(C3=O)[C@@H](Cc3ccc(C(F)(F)F)cc3)C(=O)N(C)CC(=O)N[C@@H](CCc3cc(F)c(C(F)(F)F)c(F)c3)C(=O)N2C1", "note": "[PP1109]", "values": [{"measurement": "NRAS/KRAS (ratio of KD value with respect to NRAS to KD value with respect to KRAS)", "setting": "[1]; [3]", "result": "A (a compound having 10 or more and less than 20 is denoted as A)"}, {"measurement": "HRAS/KRAS (ratio of KD value with respect to HRAS to KD value with respect to KRAS)", "setting": "[2]; [4]", "result": "B (a compound having 3 or more and less than 10 is denoted as B)"}]}, {"smiles": "CC[C@H](C)[C@@H]1NC(=O)[C@H](CC(C)C)N(C)C(=O)C[C@@H](C(=O)N2CCOCC2)N(C)C(=O)[C@H](C2CCCC2)N(C)C(=O)C2(CCCC2)NC(=O)[C@@H]2CCCN2C(=O)[C@H](CCc2ccc(C(F)(F)F)c(Cl)c2)NC(=O)CN(CC)C(=O)[C@H](Cc2ccc(C)cc2)N(CC)C(=O)CN(C)C(=O)CN(C)C1=O", "note": "[PP0028] ([NMeL]I[Sar][Sar][NEtPhe(4-Me)][NEtG][hPhe(3-Cl-4-CF3)]P[Ac5c][NMeGly(cPent)][NMeD]-Morpholide; lactam N-11)", "values": [{"measurement": "NRAS/KRAS (ratio of KD for GDP-bound NRAS wild-type to KD for KRAS)", "setting": "[1]; KD ratio NRAS/KRAS, SPR", "result": "C (A compound having a KD ratio of 0.1 or more and less than 3 is denoted as C)"}, {"measurement": "HRAS/KRAS (ratio of KD for GDP-bound HRAS wild-type to KD for KRAS)", "setting": "[2]; KD ratio HRAS/KRAS, SPR", "result": "C (A compound having a KD ratio of 0.1 or more and less than 3 is denoted as C)"}]}, {"smiles": "CCCN1C(=O)[C@@H]2CCN2C(=O)[C@H](C)N(C)C(=O)[C@H]([C@@H](C)CC)NC(=O)[C@H](CC(C)C)N(C)C(=O)C[C@@H](C(=O)N2CCOCC2)N(C)C(=O)[C@H](C2CCCC2)N(C)C(=O)C2(CCC2)NC(=O)[C@@H]2CCCN2C(=O)[C@H](CCc2ccc(C(F)(F)F)c(Cl)c2)NC(=O)CN(C)C(=O)[C@@H]1COCCC(C)C", "note": "[PP1819] ([NMeL]I[NMeA][Aze][X4][Sar][hPhe(3-Cl-4-CF3)]P[Ac4c][NMeGly(cPent)][NMeD]-Morpholide; lactam N-11)", "values": [{"measurement": "NRAS/KRAS (ratio of KD value for NRAS to KD value for KRAS)", "setting": "[1]; [3]", "result": "C (A compound having a KD ratio of 0.1 or more and less than 3 is denoted as C)"}, {"measurement": "HRAS/KRAS (ratio of KD value for HRAS to KD value for KRAS)", "setting": "[2]; [4]", "result": "C (A compound having a KD ratio of 0.1 or more and less than 3 is denoted as C)"}]}]}
